According to patent US20230122911A1, “FORMULATIONS OF ENZALUTAMIDE” (Astellas Pharma Inc., priority 2012, published 2023):

Key:
[1] = Membrane-permeation (MP) dissolution test; format: in vitro ADME
Method: The membrane permeability test described in the Examples below is carried out as follows. A drug-permeable membrane is placed between feed and permeate reservoirs. A sufficient quantity of test composition is added to a feed test medium and placed in the feed reservoir, while a water immiscible organic solution, such as a 60/40 mixture of decanol/decane, is placed in the permeate reservoir. Samples are removed from the permeate reservoir and analyzed for the concentration of drug as a function of time. […] Further details of this membrane permeation test are disclosed in U.S. Pat. No 7,611,630 B2.
The MP-dissolution test, whose details are described above, measures a capability of low solubility drug formulations which is not measured in the microcentrifuge dissolution test utilized in Examples 4 and 7. This test mimics an aspect of the in vivo situation in the GI tract. In the in vivo situation, it is generally accepted that free drug in solution (i.e. individual drug molecules dissolved in the GI medium without association with formulation components) is the species which is absorbed across the gastrointestinal wall into the bloodstream. As free drug is absorbed, the formulation must be capable of supplying more free drug for absorption. The membrane permeation test measures the amount of drug which crosses a polymeric membrane (as a model of the GI wall) over time, and thus reflects the ability of the formulation to resupply free drug in solution to be further passively transported across the polymeric membrane. In Table 8.1 below, Maximum Flux is the maximum observed rate of permeation across the polymeric membrane, based on the slope of the absorption curve over any period within the 240 minute duration of the experiment, normalized for membrane area. Total drug recovery is the % of the initial drug dose which has crossed the membrane when the test ended at 240 minutes.

[2] = Relative bioavailability of amorphous drug and spray-dried dispersions in rats (Example 12); format: in vivo; details: oral gavage 20 mg/kg, mean ± standard deviation
Method: (§1) Five groups of jugular vein-cannulated CD® rats (n=6 per group) were dosed five enzalutamide formulations by oral gavage, at a dose of 20 mg/kg, in a volume of 2 ml/kg. Blood samples were obtained at 1, 3, 6, 12, 24, 36, 48, 60, and 72 hr post-dose.
(§2) The analytes, enzalutamide. MDPC0002, and MDPC0001 and internal standards (IS), N-^13CD3-enzalutamide, MDPC0002-^13CD3, and MDPC0001-^13CD3 were extracted from 0.050 µL, of rat plasma by a liquid-liquid extraction procedure. Internal standard working solution (25.0 µL) was added to all wells except the matrix blank. A 25.0 µL-volume of acetonitrile was added all matrix blank samples. After adding 200 µL of 5% sodium bicarbonate in water buffer solution, the plate was vortexed for approximately 10 seconds. A Tomtec Quadra 96-well pipettor was used to add 1,050 mL of methyl tert-butyl ether (MTBE) to all wells, mixed, and approximately 1.00 mL of the organic layer was transferred to a clean 96-well plate. The samples were evaporated under heated nitrogen and reconstituted with 250 µL of 0.1% formic acid in methanol/water (40:60. v/v). The plate was covered and gently vortexed for approximately 10 seconds. The extracts were chromatographed under reverse phase conditions on an ACE 5 C18 HPLC 5 µm, 2.1 x 30 mm column. The compounds were detected and quantified by tandem mass spectrometry in positive ion mode on an MDS Sciex API 3000 equipped with a Turbo IONSPRAY® probe. Calibration curves were obtained by performing a linear regression (weighted ⅟x^2) of the data from the calibration standards.
(§3) Plasma enzalutamide concentration vs. time curves were prepared, and values for the following parameters were determined. Cmax max is the highest enzalutamide concentration observed for each rat. Tmax is the time that Cmax is first achieved. AUC0-72 is the area under the plasma enzalutamide concentration vs. time plot out to 72 hr post-dosing.

[3] = Relative bioavailability of amorphous drug and HME dispersions in rats (Example 13); format: in vivo, rat; details: oral gavage 20 mg/kg; for Mean AUC0-inf: rat plasma; for Bioavailability (Mean AUC0-inf/IV Mean AUC0-inf): rat
Method: as §1, with “Six” for “Five”, “six” for “five”, “ml/kg. with the exception of one group which was dosed intravenously via tail vein.” for “ml/kg.”
as §2, with “enzalutamide,” for “enzalutamide.”, “MDPC0002-^13CD3.” for “MDPC0002-^13CD3,”, “[…]” for “µL,”, “1.050” for “1,050”, “(40:60,” for “(40:60.”
as §3, with “Cmax” for “Cmax max”

[4] = rat plasma, listed as Spray-dried amorphous drug
[5] = listed as Spray-dried amorphous drug

CNC(=O)c1ccc(N2C(=S)N(c3ccc(C#N)c(C(F)(F)F)c3)C(=O)C2(C)C)cc1F [Amorphous enzalutamide, 4-{3-[4-cyano-3-(trifluoromethyl)phenyl]-5,5-dimethyl-4-oxo-2-sulfanylideneimidazolidin-1-yl}-2-fluoro-N-methylbenzamide]
Maximum Flux ([1]; Table 8.1, within 240 minute duration, normalized for membrane area, listed as Amorphous (spray-dried) enzalutamide): 1.3 µg/cm^2×min
AUC 0-72 [2, 4]: 121000 ± 16400 ng·h/mL
Cmax [2, 4]: 7140 ± 970 ng/mL
Tmax [2, 4]: 2.55 ± 0.57 h
Mean AUC0-inf [3, 5]: 132000 ng·h/mL
Bioavailability (Mean AUC0-inf/IV Mean AUC0-inf) [3, 5]: 57.1%

CNC(=O)c1ccc(N2C(=S)N(c3ccc(C#N)c(C(F)(F)F)c3)C(=O)C2(C)C)cc1F [Control 1, 4-{3-[4-cyano-3-(trifluoromethyl)phenyl]-5,5-dimethyl-4-oxo-2-sulfanylideneimidazolidin-1-yl}-2-fluoro-N-methylbenzamide]
Maximum Flux ([1]; Table 8.1, within 240 minute duration, normalized for membrane area): 0.4 µg/cm^2×min
Maximum Flux ([1]; Table 9.3): 0.4 µg/cm^2-min
AUC(0-t) ([2]; CD, rat, plasma, po, 20 mg/kg, read-out: AUC 0-72): 72700 ± 18400 ng·h/mL
Cmax ([2]; rat plasma): 3530 ± 660 ng/mL
Tmax ([2]; rat plasma): 6.05 ± 0.92 h
Mean AUC0-inf [3]: 62600 ng·h/mL
Bioavailability (Mean AUC0-inf/IV Mean AUC0-inf) [3]: 27.1%
